In PubChem BioAssay AID330 (DTP/NCI, 2004):
Values joined by “and” are separate entries in the source; they are usually repeats but may differ in a detail not shown here. Equal values may be shown once. Toxic doses and inconclusive results are not listed. The calls were made as follows: active = survival T/C of 150% or more; inactive = T/C below 125% in these data.

System: P388 leukemia ip, CD2F1 mice, survival T/C
Experiment: NCI In Vivo Anticancer Drug Screen. Data for tumor model P388 Leukemia (intraperitoneal) in CD2F1 (CDF1) mice
Settings: endpoint: median survival time, higher = longer survival
Method in brief: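 Mice carrying the transplanted tumor received test compound or vehicle. Survival was recorded in each group, and the value is the treated-group measurement divided by that of the vehicle-treated control group.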

[1] = dose: 50.0 mg/kg/injection, schedule: Q01DX009 (ip), vehicle: Klucel (hydroxypropylcellulose) (HPC)
[2] = dose: 100.0 mg/kg/injection, schedule: Q01DX009 (ip), vehicle: Klucel (hydroxypropylcellulose) (HPC)
[3] = dose: 200.0 mg/kg/injection, schedule: Q01DX009 (ip), vehicle: Klucel (hydroxypropylcellulose) (HPC)
[4] = dose: 50.0 mg/kg/injection, schedule: Q01DX009 (ip), vehicle: saline with Tween-80
[5] = dose: 100.0 mg/kg/injection, schedule: Q01DX009 (ip), vehicle: saline with Tween-80
[6] = dose: 200.0 mg/kg/injection, schedule: Q01DX009 (ip), vehicle: saline with Tween-80
[7] = dose: 60.0 mg/kg/injection, schedule: Q01DX005 (ip), vehicle: saline with Tween-80
[8] = dose: 120.0 mg/kg/injection, schedule: Q01DX005 (ip), vehicle: saline with Tween-80
[9] = dose: 50.0 mg/kg/injection, schedule: Q01DX005 (ip), vehicle: saline with Tween-80
[10] = dose: 100.0 mg/kg/injection, schedule: Q01DX005 (ip), vehicle: saline with Tween-80
[11] = dose: 50.0 mg/kg/injection, schedule: Q01DX005 (ip), vehicle: Klucel (hydroxypropylcellulose) (HPC)
[12] = dose: 100.0 mg/kg/injection, schedule: Q01DX005 (ip), vehicle: Klucel (hydroxypropylcellulose) (HPC)
[13] = dose: 200.0 mg/kg/injection, schedule: Q01DX005 (ip), vehicle: Klucel (hydroxypropylcellulose) (HPC)
[14] = dose: 400.0 mg/kg/injection, schedule: Q01DX009 (ip), vehicle: Klucel (hydroxypropylcellulose) (HPC)
[15] = dose: 240.0 mg/kg/injection, schedule: Q01DX005 (ip), vehicle: saline with Tween-80

Measured: T/C

O=c1oc(-c2cccc([N+](=O)[O-])c2)ns1
inactive: dose: 6.25 mg/kg/injection, schedule: Q01DX009 (ip), vehicle: Klucel (hydroxypropylcellulose) (HPC) 101 % of control | dose: 12.5 mg/kg/injection, schedule: Q01DX009 (ip), vehicle: Klucel (hydroxypropylcellulose) (HPC) 97 % of control | dose: 25.0 mg/kg/injection, schedule: Q01DX009 (ip), vehicle: Klucel (hydroxypropylcellulose) (HPC) 109 % of control

CC1(C)C=Cc2c(O)c(C(=O)/C=C/c3ccccc3)c3c(c2O1)C=CC(C)(C)O3
inactive: dose: 5.25 mg/kg/injection, schedule: Q01DX005 (ip), vehicle: Klucel (hydroxypropylcellulose) (HPC) 100 % of control | dose: 10.5 mg/kg/injection, schedule: Q01DX005 (ip), vehicle: Klucel (hydroxypropylcellulose) (HPC) 95 % of control | dose: 21.0 mg/kg/injection, schedule: Q01DX005 (ip), vehicle: Klucel (hydroxypropylcellulose) (HPC) 97 % of control | dose: 42.0 mg/kg/injection, schedule: Q01DX005 (ip), vehicle: Klucel (hydroxypropylcellulose) (HPC) 86 % of control

CC(C)O[Si](OC(C)C)(OC(C)C)OC(C)C
inactive: [1] 101 % of control | [2] 105 % of control | [3] 105 % of control

O=C(Nc1ccccc1)Oc1ccc(/C=N/S(=O)(=O)c2cccc([N+](=O)[O-])c2)cc1
inactive: [4] 96 % of control | [5] 98 % of control | [6] 118 % of control

CC(C)OP(=S)(S)OC(C)C
inactive: dose: 50.0 mg/kg/injection, schedule: Q01DX009 (ip), vehicle: saline 114 % of control | dose: 100.0 mg/kg/injection, schedule: Q01DX009 (ip), vehicle: saline 118 % of control | dose: 200.0 mg/kg/injection, schedule: Q01DX009 (ip), vehicle: saline 97 % of control

CCOC(=O)c1cc2c(ccc3ccccc32)[nH]1
inactive: [7] 97 % of control | [8] 89 % of control

COc1cc(Nc2ccccc2)c2c(c1N)C(=O)c1ccccc1C2=O
inactive: [9] 91 % of control | [10] 88 % of control

CCc1nc(N)nc(N)c1-c1ccc(Cl)c(N)c1
inactive: dose: 3.12 mg/kg/injection, schedule: Q01DX009 (ip), vehicle: distilled water + Tween-80 101 % of control | dose: 6.25 mg/kg/injection, schedule: Q01DX009 (ip), vehicle: distilled water + Tween-80 111 % of control | dose: 12.5 mg/kg/injection, schedule: Q01DX009 (ip), vehicle: distilled water + Tween-80 110 % of control | dose: 25.0 mg/kg/injection, schedule: Q01DX009 (ip), vehicle: distilled water + Tween-80 100 % of control | dose: 50.0 mg/kg/injection, schedule: Q01DX009 (ip), vehicle: distilled water + Tween-80 100 % of control and 111 % of control | dose: 100.0 mg/kg/injection, schedule: Q01DX009 (ip), vehicle: distilled water + Tween-80 105 % of control | dose: 200.0 mg/kg/injection, schedule: Q01DX009 (ip), vehicle: distilled water + Tween-80 101 % of control | dose: 400.0 mg/kg/injection, schedule: Q01DX009 (ip), vehicle: distilled water + Tween-80 118 % of control

Cc1cc(C)c(C#N)c(SC(C(=O)NC(C)(C)C)c2ccccc2)n1 (stereo unspecified)
inactive: [11] 88 % of control | [12] 87 % of control | [13] 87 % of control

Nc1nc2c(nnn2C2OC(CO)C(O)C2O)c(=O)[nH]1 (stereo unspecified)
inactive: [9] 113 % of control | [10] 101 % of control

CC(C)C/C=N\N=C(N)N
inactive: dose: 50.0 mg/kg/injection, schedule: Q01DX005 (ip), vehicle: saline 100 % of control | dose: 100.0 mg/kg/injection, schedule: Q01DX005 (ip), vehicle: saline 100 % of control

Cc1ccc(C2(c3ccccc3)OC(=O)c3ccccc32)cc1 (stereo unspecified)
inactive: dose: 200.0 mg/kg/injection, schedule: Q01DX009 (ip), vehicle: saline sonified 95 % of control

S=c1[nH]c2ccc(Cl)cc2s1
inactive: [1] 98 % of control | [2] 101 % of control | [3] 90 % of control | [14] 95 % of control

NC(=O)c1cccn(-c2ccccc2)c1=S
inactive: [11] 89 % of control | [12] 105 % of control | [13] 105 % of control

O=C(O)c1cccc2c1C(=O)c1cccc3snc-2c13
inactive: [11] 101 % of control | [12] 99 % of control | [13] 109 % of control

CCN(CC)CCNc1ccc(N)c2sc3ccccc3c(=O)c12
inactive: [4] 103 % of control and 107 % of control and 119 % of control | [5] 115 % of control and 120 % of control and 122 % of control | [6] 96 % of control

O=C/C=C/C=C/C=C/c1ccccc1
inactive: dose: 60.0 mg/kg/injection, schedule: Q01DX005 (ip), vehicle: distilled water + alcohol 100 % of control | dose: 120.0 mg/kg/injection, schedule: Q01DX005 (ip), vehicle: distilled water + alcohol 100 % of control | dose: 240.0 mg/kg/injection, schedule: Q01DX005 (ip), vehicle: distilled water + alcohol 96 % of control

CCCCC(CC)COCC(O)Cn1cnc2c(N)ncnc21 (stereo unspecified)
inactive: [11] 104 % of control | [12] 97 % of control | [13] 91 % of control

Cc1nnc(NC(=O)c2ccc(Cl)c(Cl)c2)s1
inactive: [1] 100 % of control | [2] 94 % of control | [3] 89 % of control

OCC1=C(CO)CC=CC1
inactive: [7] 96 % of control | [8] 96 % of control | [15] 95 % of control

COC(=O)c1nc2nnc(N)n2c(-c2ccc(Cl)cc2)c1C
inactive: [7] 100 % of control | [8] 101 % of control | [15] 96 % of control

Cc1c(C)c2c(c(C)c1O)CCC(C)(CCCC(C)CCCC(C)CCCC(C)C)O2 (stereo unspecified)
inactive: dose: 42.5 mg/kg/injection, schedule: Q01DX001 (ip), vehicle: olive oil, sesame oil, peanut oil 104 % of control | dose: 50.0 mg/kg/injection, schedule: Q01DX009 (ip), vehicle: olive oil, sesame oil, peanut oil 106 % of control | dose: 85.0 mg/kg/injection, schedule: Q01DX001 (ip), vehicle: olive oil, sesame oil, peanut oil 98 % of control | dose: 100.0 mg/kg/injection, schedule: Q01DX009 (ip), vehicle: olive oil, sesame oil, peanut oil 100 % of control | [5] 100 % of control | dose: 100.0 mg/kg/injection, schedule: Q04DX003 (ip), vehicle: saline with Tween-80 100 % of control | dose: 170.0 mg/kg/injection, schedule: Q01DX001 (ip), vehicle: olive oil, sesame oil, peanut oil 100 % of control and 97 % of control | dose: 200.0 mg/kg/injection, schedule: Q01DX009 (ip), vehicle: olive oil, sesame oil, peanut oil 103 % of control | [6] 104 % of control | dose: 200.0 mg/kg/injection, schedule: Q04DX003 (ip), vehicle: saline with Tween-80 100 % of control | dose: 340.0 mg/kg/injection, schedule: Q01DX001 (ip), vehicle: olive oil, sesame oil, peanut oil 91 % of control | [14] 102 % of control | dose: 400.0 mg/kg/injection, schedule: Q01DX009 (ip), vehicle: saline with Tween-80 100 % of control | dose: 400.0 mg/kg/injection, schedule: Q04DX003 (ip), vehicle: saline with Tween-80 87 % of control | dose: 800.0 mg/kg/injection, schedule: Q01DX009 (ip), vehicle: Klucel (hydroxypropylcellulose) (HPC) 101 % of control | dose: 1200.0 mg/kg/injection, schedule: Q01DX009 (ip), vehicle: Klucel (hydroxypropylcellulose) (HPC) 106 % of control | dose: 1600.0 mg/kg/injection, schedule: Q01DX009 (ip), vehicle: Klucel (hydroxypropylcellulose) (HPC) 113 % of control | dose: 42.5 IU/animal/injection, schedule: Q01DX001 (ip), vehicle: olive oil, sesame oil, peanut oil 102 % of control and 110 % of control | dose: 85.0 IU/animal/injection, schedule: Q01DX001 (ip), vehicle: olive oil, sesame oil, peanut oil 102 % of control and 105 % of control and 107 % of control | dose: 170.0 IU/animal/injection, schedule: Q01DX001 (ip), vehicle: olive oil, sesame oil, peanut oil 101 % of control and 113 % of control (2×) | dose: 340.0 IU/animal/injection, schedule: Q01DX001 (ip), vehicle: olive oil, sesame oil, peanut oil 102 % of control and 104 % of control

O=C(O)c1ccnc2nc[nH]c12
inactive: dose: 100.0 mg/kg/injection, schedule: Q04DX002 (ip), vehicle: Klucel (hydroxypropylcellulose) (HPC) 100 % of control | dose: 200.0 mg/kg/injection, schedule: Q04DX002 (ip), vehicle: Klucel (hydroxypropylcellulose) (HPC) 106 % of control | dose: 400.0 mg/kg/injection, schedule: Q04DX002 (ip), vehicle: Klucel (hydroxypropylcellulose) (HPC) 100 % of control

O=C(Cc1ccccn1)c1cccnc1
inactive: dose: 100.0 mg/kg/injection, schedule: Q04DX003 (ip), vehicle: saline 94 % of control | dose: 200.0 mg/kg/injection, schedule: Q04DX003 (ip), vehicle: saline 96 % of control | dose: 400.0 mg/kg/injection, schedule: Q04DX003 (ip), vehicle: saline 100 % of control
